Laboratory results from article PMC5678437, “A new antagonist for CCR4 attenuates allergic lung inflammation in a mouse model of asthma” (Scientific Reports, 2017).

Legend:
[1] = target: T1, CCR6 (Homo sapiens, UniProt P51684); assay: Chemotaxis inhibition assay for receptor specificity, HEK293-CCR6; type: cell-based; conditions: 0.2, 1, 5, 25 μM, 30 min pretreatment
T1 construct: expressed in transfected cells; host or cells: HEK293, pcDI-CCR6 plasmid made in the authors' laboratory
T1 sequence (P51684 1-374): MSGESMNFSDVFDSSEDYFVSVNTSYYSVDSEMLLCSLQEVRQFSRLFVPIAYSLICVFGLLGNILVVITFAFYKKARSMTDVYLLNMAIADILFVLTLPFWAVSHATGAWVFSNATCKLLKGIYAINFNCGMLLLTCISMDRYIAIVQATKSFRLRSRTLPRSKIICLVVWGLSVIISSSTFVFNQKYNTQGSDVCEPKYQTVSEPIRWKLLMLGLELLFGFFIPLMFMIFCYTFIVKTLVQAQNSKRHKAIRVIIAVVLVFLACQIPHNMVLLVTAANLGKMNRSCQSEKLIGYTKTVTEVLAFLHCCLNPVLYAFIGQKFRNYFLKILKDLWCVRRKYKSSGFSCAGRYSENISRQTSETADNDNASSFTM
Method: (§1) HEK293 cells were transfected with different chemokine receptors. The corresponding chemokines of different receptors were placed in the lower chambers. The transfected cells were pretreated with different concentrations of Compound 8a or 1‰ DMSO for 30 min at a density of 1 × 10^6 cells/ml and added to the upper chambers, the final concentration of the compound is: 0.2 μM, 1 μM, 5 μM, and 25 μM, respectively.

[2] = target: T2, CCR2B (Homo sapiens, UniProt P41597); assay: Chemotaxis assay for receptor specificity, HEK293-CCR2B; type: cell-based; conditions: compound as chemoattractant in lower chamber, 0.2, 1, 5, 25 μM
T2 construct: expressed in transfected cells; host or cells: HEK293, pcDB-CCR2B plasmid made in the authors' laboratory
T2 sequence (P41597 1-360 isoform P41597-2): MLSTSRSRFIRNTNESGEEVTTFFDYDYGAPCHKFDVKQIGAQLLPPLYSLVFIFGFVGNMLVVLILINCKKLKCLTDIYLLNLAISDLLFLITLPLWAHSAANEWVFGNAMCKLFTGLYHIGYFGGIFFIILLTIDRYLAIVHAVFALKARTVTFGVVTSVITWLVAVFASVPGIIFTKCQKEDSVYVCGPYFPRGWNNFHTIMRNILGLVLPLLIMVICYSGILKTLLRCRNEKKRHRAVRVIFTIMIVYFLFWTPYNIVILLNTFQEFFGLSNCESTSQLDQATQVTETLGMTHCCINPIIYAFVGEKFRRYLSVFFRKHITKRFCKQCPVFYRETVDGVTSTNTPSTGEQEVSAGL
Method: HEK293 cells were transfected with different chemokine receptors. Compound 8a with DMSO was diluted to 0.2 mM, 1 mM, 5 mM and 25 mM, and then we used RPMI 1640 medium containing 0.1% BSA for dilution. The final concentration is: 0.2 μM, 1 μM, 5 μM and 25 μM. DMSO was also diluted 1000-fold with 0.1% BSA RPMI 1640 medium. Chemokines was also diluted to an appropriate concentration. The dilutions of Compound 8a, 1‰ DMSO, the corresponding chemokines of different receptors and 0.1% BSA RPMI 1640 medium were placed in the lower chambers (27.5 μl/well). The transfected HEK293 cells were resuspended in the same medium at a density of 1 × 10^6 cells/ml and added to the upper chambers (55 μl/well).

[3] = target: T3, CXCR3 (Homo sapiens, UniProt P49682); assay: Chemotaxis inhibition assay for receptor specificity, HEK293-CXCR3; type: cell-based; conditions: 0.2, 1, 5, 25 μM, 30 min pretreatment
T3 construct: expressed in transfected cells; host or cells: HEK293; plasmid from Chinese National Human Genome Center
T3 sequence (P49682 1-415 isoform P49682-2): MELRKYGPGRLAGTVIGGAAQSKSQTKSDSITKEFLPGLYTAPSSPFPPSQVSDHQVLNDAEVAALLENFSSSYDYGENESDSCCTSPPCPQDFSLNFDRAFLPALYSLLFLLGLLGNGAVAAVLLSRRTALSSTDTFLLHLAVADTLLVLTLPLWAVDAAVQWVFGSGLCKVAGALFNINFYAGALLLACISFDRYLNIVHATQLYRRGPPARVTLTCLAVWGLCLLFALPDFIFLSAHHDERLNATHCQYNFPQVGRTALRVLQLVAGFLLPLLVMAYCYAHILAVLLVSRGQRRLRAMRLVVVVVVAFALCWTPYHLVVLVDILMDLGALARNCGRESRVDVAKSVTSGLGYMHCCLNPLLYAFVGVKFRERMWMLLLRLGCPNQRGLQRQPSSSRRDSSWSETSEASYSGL
Method: as §1

[4] = tested on: OVA-induced asthmatic mice; assay: Airway mucus production (PAS staining) in OVA-induced asthmatic mice; type: in vivo, BALB/c mice; conditions: compound 8a 0.2, 1, 5 mg; budesonide 5 mg; vs vehicle treated group
Method: Male BALB/c 6 week old mice were purchased from the Experimental Animal Center of Zhejiang University. All mice were raised in a specific pathogen-free animal facility. All animal experiments were carried out according to the guidelines for the care and use of laboratory animals and were approved by the ethics committee of Zhejiang University and Peking University, China.
Mice were sensitized and challenged with chicken egg OVA (sigma-Aldrich, St Louis, MO, USA) as described in details previously. Briefly, after sensitized by intraperitoneal injection of 100 μl (80 μg) OVA in 100 μl alum (Pierce, Rockford, IL, USA) on days 0 and 14, mice were exposure to 1% OVA aerosols for 40 min on days 24–26. Control mice were injected intraperitoneally with saline and exposed to saline aerosols.
Compound 8a was dissolved in saline with DMSO (0.5%). Half an hour before each OVA challenge, the groups of mice treated with various doses of compound 8a (0.2, 1, 5 mg) inhaled aerosolized compound 8a for 45 min on days 24–26. Compound 8a aerosols were produced by using a Plexiglas chamber and ultrasonic nebulizer. […]
After sacrificed, the lungs were fixed in formalin overnight. […] Inflammation was scored according to published guidelines. And PAS-stained goblet cells in airway epithelium were quantified as described previously.

[5] = target: T4, CXCR4 (Homo sapiens, UniProt P61073); assay: Chemotaxis inhibition assay for receptor specificity, HEK293-CXCR4; type: cell-based; conditions: 0.2, 1, 5, 25 μM, 30 min pretreatment
T4 construct: expressed in transfected cells; host or cells: HEK293; plasmid from Chinese National Human Genome Center
T4 sequence (P61073 1-356 isoform P61073-2): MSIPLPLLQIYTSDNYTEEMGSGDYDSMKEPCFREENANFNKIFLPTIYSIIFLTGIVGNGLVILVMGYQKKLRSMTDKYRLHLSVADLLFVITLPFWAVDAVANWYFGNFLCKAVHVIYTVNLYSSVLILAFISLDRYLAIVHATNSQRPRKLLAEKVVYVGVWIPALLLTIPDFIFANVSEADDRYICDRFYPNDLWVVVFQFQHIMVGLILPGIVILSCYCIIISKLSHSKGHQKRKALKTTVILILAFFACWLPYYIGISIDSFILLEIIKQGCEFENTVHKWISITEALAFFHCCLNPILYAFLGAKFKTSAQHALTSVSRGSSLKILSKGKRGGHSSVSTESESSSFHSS
Method: as §1

inhibition of chemotaxis of HEK293-CCR6 to its ligand [1]: few influence
chemotaxis effect of the compound on HEK293-CCR2B [2]: didn’t exert chemotaxis effects
inhibition of chemotaxis of HEK293-CXCR3 to its ligand [3]: few influence
inhibition of chemotaxis of HEK293-CXCR4 to its ligand [5]: few influence
Structure (SMILES): O=C(C1CCCCN1)N1CCN(c2nc(Cl)cc(NCc3ccc(Cl)cc3Cl)n2)CC1 (centres unmarked) [compound 8a, {4-[4-Chloro-6-(2,4-dichloro-benzylamino)-pyrimidin-2-yl]-piperazin-1-yl}-piperidin-2-yl-methanone]
airway mucus production (PAS-stained cells) [4]: no difference
